The values that follow are results of earlier work, collected in patent US20250215497A1, “IL-8, IL-6, IL-1 Beta and TET2 and DNMT3A in Atherosclerosis” (The Brigham and Women’s Hospital, Inc., priority 2017, published 2025).

The subject of one series is IL-6. The note with it: patients with rheumatoid arthritis, low-dose methotrexate.
A further series has as its system IL-1β. Particulars: patients with rheumatoid arthritis, low-dose methotrexate (for example from 15 to 20 mg/week).

For the compound `CN(Cc1cnc2nc(N)nc(N)c2n1)c1ccc(C(=O)N[C@@H](CCC(=O)O)C(=O)O)cc1` [methotrexate], the “effect on IL-6 levels” value with IL-6 is on record as “improve IL-6 levels”. In the series with IL-1β, the “effect on IL-1β levels” value is “improve IL-1β levels”.
